Measured values taken from patent US6475996B1, “Use of a vector expressing DNA polymerase β as medicine” (Centre National De La Recherche Scientifique (CNRS), priority 1996, dated 2002).
Blank lines part the entries; values can stand above or below the molecule they belong to.

Key:
E. coli SC 18-12 = test: Functionality check of pZHTkβ: survival of E. coli SC 18-12; format: cell-based; details: Zeocine 25 μg/ml
From the text: The functionality of the construct was checked using E. coli bacterial strains,
1—either by transforming the strain SC 18-12 for the expression of pol β,

DNA polymerase β = DNA polymerase β (Homo sapiens, UniProt P06746); details: in vitro, compared with dCMP (Copeland et al., 1992); cited from earlier work
pol β = target: T1, pol β (Rattus norvegicus, UniProt P06766); test: DNA replication test with extracts of pol β-transfected B16 cells; format: biochemical; details: extracts of B16 cells transfected with pUT-pol β
T1 construct: expressed in transfected cells; host or cells: B16 mouse melanoma cells transfected with pUT-pol β; cell extracts

SMILES: Cc1c(N)nc([C@H](CC(N)=O)NC[C@H](N)C(N)=O)nc1C(=O)N[C@H](C(=O)N[C@H](C)[C@@H](O)[C@H](C)C(=O)N[C@H](C(=O)NCCC1=N[C@@H](c2nc(C(=O)NCCCCN=C(N)N)cs2)CS1)[C@@H](C)O)[C@@H](O[C@@H]1O[C@@H](CO)[C@@H](O)[C@H](O)[C@@H]1O[C@H]1O[C@H](CO)[C@@H](O)[C@H](OC(N)=O)[C@@H]1O)c1cnc[nH]1 [Zeocine]
- Survival (%) (E. coli SC 18-12; SC 18-12/pZHTkβ): 97%
- Survival (%) (E. coli SC 18-12; SC 18-12 non-transformed): 5%

SMILES: Nc1ccn([C@H]2CC[C@@H](COP(=O)(O)O)O2)c(=O)n1 [ddCMP]
- Efficacy of incorporation by DNA polymerase β (DNA polymerase β): comparable to that observed for the incorporation of the natural antagonist dCMP

- In vitro incorporation into the G-rich nucleotide substrate (pol β): allowed an in vitro incorporation
SMILES: Nc1ccn([C@H]2CC[C@@H](COP(=O)(O)OP(=O)(O)OP(=O)(O)O)O2)c(=O)n1 [triphosphorylated ddC]
